11 compounds from patent US12391679B2, “Benzamide-substituted bicyclic imidazo- and pyrazolo-fused -pyridine, -pyrimide, and -pyridazine compounds for treatment of inflammatory diseases” (ONCO3R Therapeutics BV, priority 2019, dated 2025) can be followed below.

Each structure is given as a SMILES string.

In general, IC50 refers to the concentration needed to halve the response being measured. Usually EC50 stands for the concentration that produces a half-maximal response.

One experiment has as its target T1, SIK1 (Homo sapiens, UniProt P57059).
T1 construct: purchased Carna Biosciences 02-131
Description: ADP-Glo kinase assay, SIK1. The experiment is classed as biochemical. In outline:
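Luminescent ADP-formation read-out: enzyme–substrate mix + ATP, 120 min RT; ATP depletion 40 min RT; ADP→ATP conversion with luciferase/luciferin 30 min RT. Controls: 1% DMSO (negative), 10 μM staurosporine final (positive).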

Experiment [1] deals with LPS-induced TNFα in monocyte-derived macrophages. Description: MdM assay: LPS-triggered TNFα (ELISA). The experiment is classed as cell-based, human. The note with it: Macrophage; human MdM; LPS 200 ng/mL; supernatant after 20 h; inhibition of TNFα; read-out: TNFα EC50. In outline:
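TNFα secretion quantified by streptavidin-HRP/luminol sandwich ELISA in supernatants collected 20 h after LPS (200 ng/mL). Macrophages derived from magnetically isolated human CD14+ monocytes were used at day 10, with compound added 1 h before LPS; final DMSO 0.2%.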

T1 sequence (P57059 whole entry): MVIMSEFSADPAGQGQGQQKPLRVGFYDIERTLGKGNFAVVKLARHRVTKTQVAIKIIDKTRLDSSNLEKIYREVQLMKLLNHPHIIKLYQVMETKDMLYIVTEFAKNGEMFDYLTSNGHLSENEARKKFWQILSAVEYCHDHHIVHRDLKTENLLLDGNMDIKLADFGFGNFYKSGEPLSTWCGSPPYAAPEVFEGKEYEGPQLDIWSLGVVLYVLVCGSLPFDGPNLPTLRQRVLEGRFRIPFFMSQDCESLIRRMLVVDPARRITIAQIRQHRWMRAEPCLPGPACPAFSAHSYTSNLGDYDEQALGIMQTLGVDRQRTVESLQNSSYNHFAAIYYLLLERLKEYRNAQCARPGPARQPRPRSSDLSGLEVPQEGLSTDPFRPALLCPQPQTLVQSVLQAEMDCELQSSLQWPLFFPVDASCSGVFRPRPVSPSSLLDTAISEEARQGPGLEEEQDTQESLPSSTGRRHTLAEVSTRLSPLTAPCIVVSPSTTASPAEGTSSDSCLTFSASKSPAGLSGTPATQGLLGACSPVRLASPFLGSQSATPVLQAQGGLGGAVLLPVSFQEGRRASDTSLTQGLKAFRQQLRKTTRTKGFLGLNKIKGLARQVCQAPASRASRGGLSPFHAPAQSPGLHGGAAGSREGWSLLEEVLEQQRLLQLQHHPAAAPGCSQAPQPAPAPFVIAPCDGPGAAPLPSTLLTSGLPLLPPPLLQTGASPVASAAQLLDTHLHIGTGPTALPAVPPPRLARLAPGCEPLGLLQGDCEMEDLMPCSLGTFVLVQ

In turn, `COc1cc(-c2cnc3cc(C(C)O)ccn23)cc(OC(F)F)c1C(=O)NC1CC1` (stereo not shown) [Cpd 140, N-cyclopropyl-2-(difluoromethoxy)-4-[7-(1-hydroxyethyl)imidazo[1,2-a]pyridin-3-yl]-6-methoxy-benzamide] returned an IC50 at SIK1 of 0.1 to 0.5 µM. In experiment [1], the EC50 was in the range of 1 to 5 µM.

With `COc1cc(-c2cnc3cc(C(C)N4CCCCC4)ccn23)cc(OC(F)F)c1C(=O)NC1CC1` (stereo not shown) [Cpd 146, N-cyclopropyl-2-(difluoromethoxy)-6-methoxy-4-[7-[1-(1-piperidyl)ethyl]imidazo[1,2-a]pyridin-3-yl]benzamide], the IC50 on SIK1 is above 0.5 µM. In experiment [1], the EC50 fell in the range of 1 to 5 µM.

Turning to `COc1cc(-c2cnc3cc(C(C)(C)CO)ccn23)cc(OC(F)F)c1C(=O)NC1CC1` [Cpd 150, N-cyclopropyl-2-(difluoromethoxy)-4-[7-(2-hydroxy-1,1-dimethyl-ethyl)imidazo[1,2-a]pyridin-3-yl]-6-methoxy-benzamide], the IC50 against SIK1 is above 0.5 µM. Moreover, the EC50 in experiment [1] lay in the range of 0.1 to 1 µM.

The compound `COc1cc(-c2cnc3cc(C(C)(C)CN4CCOCC4)ccn23)cc(OC(F)F)c1C(=O)NC1CC1` [Cpd 160, N-cyclopropyl-2-(difluoromethoxy)-4-[7-(1,1-dimethyl-2-morpholino-ethyl)imidazo[1,2-a]pyridin-3-yl]-6-methoxy-benzamide] came in with an IC50 at SIK1 above 0.5 µM. Also, the EC50 in experiment [1] was 0.1 to 1 µM.

Regarding `COc1cc(-c2cnc3cc(C4CCOCC4)c(F)cn23)cc(OC(F)F)c1C(=O)NC1CC1` [Cpd 166, N-cyclopropyl-2-(difluoromethoxy)-4-(6-fluoro-7-tetrahydropyran-4-yl-imidazo[1,2-a]pyridin-3-yl)-6-methoxy-benzamide], the IC50 on SIK1 was above 0.5 µM. In experiment [1], the concentration for a half-maximal effect (EC50) was in the range of 0.1 to 1 µM.

The compound `COc1cc(-c2cnc3cc(C4CCC4)c(F)cn23)cc(OC(F)F)c1C(=O)NC1CC1` [Cpd 168, 4-(7-cyclobutyl-6-fluoro-imidazo[1,2-a]pyridin-3-yl)-N-cyclopropyl-2-(difluoromethoxy)-6-methoxy-benzamide] showed an IC50 against SIK1 of 0.1 to 0.5 µM. For the same compound, the EC50 in experiment [1] lay in the range of 0.1 to 1 µM.

At SIK1, `COc1cc(-c2cnc3cc(C4(O)CCOCC4)ccn23)cc(OC(F)F)c1C(=O)NC1CC1` [Cpd 170, N-cyclopropyl-2-(difluoromethoxy)-4-[7-(4-hydroxytetrahydropyran-4-yl)imidazo[1,2-a]pyridin-3-yl]-6-methoxy-benzamide] yielded an IC50 above 0.5 µM. The EC50 in experiment [1] lay in the range of 1 to 5 µM.

In turn, `COc1cc(-c2cnc3cc(C4CCCN4C)ccn23)cc(OC(F)F)c1C(=O)NC1CC1` (stereo not shown) [Cpd 171, N-cyclopropyl-2-(difluoromethoxy)-6-methoxy-4-[7-(1-methylpyrrolidin-2-yl)imidazo[1,2-a]pyridin-3-yl]benzamide] returned an IC50 against SIK1 above 0.5 µM. For the same compound, in experiment [1], the EC50 fell in the range of 1 to 5 µM.

At SIK1, `COc1cc(-c2cnc3cc(C(C)(C)C(C)O)ccn23)cc(OC(F)F)c1C(=O)NC1CC1` (stereo not shown) [Cpd 172, N-cyclopropyl-2-(difluoromethoxy)-4-[7-(2-hydroxy-1,1-dimethyl-propyl)imidazo[1,2-a]pyridin-3-yl]-6-methoxy-benzamide] showed an IC50 above 0.5 µM. Also, the EC50 in experiment [1] is 0.1 to 1 µM.

Compound `COc1cc(-c2cnc3cc(C4(O)CCC4)ccn23)cc(OC(F)F)c1C(=O)NC1CC1` [Cpd 173, N-cyclopropyl-2-(difluoromethoxy)-4-[7-(1-hydroxycyclobutyl)imidazo[1,2-a]pyridin-3-yl]-6-methoxy-benzamide] returned an IC50 at SIK1 above 0.5 µM. Also, the EC50 in experiment [1] was in the range of 0.1 to 1 µM.

For the compound `COc1cc(-c2cnc3cc(C4COC4)ccn23)cc(OC(F)F)c1C(=O)NC1CC1` [Cpd 174, N-cyclopropyl-2-(difluoromethoxy)-6-methoxy-4-[7-(oxetan-3-yl)imidazo[1,2-a]pyridin-3-yl]benzamide], the IC50 against SIK1 fell in the range of 0.1 to 0.5 µM. The EC50 in experiment [1] was 0.1 to 1 µM.
